{"source": "paper PMC12453120", "about": "“TrkA of Streptococcus mitis CCUG31611 binds cyclic di-adenosine monophosphate and is required for growth in low potassium conditions” (Microbiology, 2025)", "key": {"TrkA": {"biological_target": "T1, TrkA (Streptococcus mitis, UniProt A0ACG7RC27)", "T1 construct": "gene SM12261_0089; full-length ORF (1-221 aa), N-terminal 6xHis tag kept, pET30b, E. coli BL21(DE3); Ni-NTA + SEC; two bands on SDS-PAGE, both TrkA by MS; MS peptide positions up to 227 include the tag", "T1 sequence (A0ACG7RC27 1-221)": "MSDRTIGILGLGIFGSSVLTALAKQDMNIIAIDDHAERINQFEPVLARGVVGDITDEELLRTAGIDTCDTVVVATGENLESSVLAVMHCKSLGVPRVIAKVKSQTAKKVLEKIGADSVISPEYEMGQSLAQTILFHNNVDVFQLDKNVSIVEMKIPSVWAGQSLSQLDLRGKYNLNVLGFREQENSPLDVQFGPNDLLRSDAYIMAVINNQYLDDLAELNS", "experiment": "nanoDSF, isothermal FoldAffinity fit", "assay_type": "binding", "details": "500 nM TrkA, 150 mM KCl, 20 mM HEPES, 10% glycerol, pH 7.5", "from_the_text": "nanoDSF, isothermal FoldAffinity fit on TrkA"}, "[1]": {"biological_target": "TrkA of Streptococcus mitis CCUG31611 (SM12261_0089), recombinant with N-terminal 6x His-tag (Streptococcus mitis CCUG31611)", "experiment": "SEC; Sepharose 6 Increase 10-300 GL column, AKTA pure; 150 mM KCl, 20 mM HEPES, pH 7.5; flow 0.2 ml/min; MW estimated from a standard curve of gel filtration markers (12,000-200,000 Da), logMW vs VE/V0"}, "[2]": {"details": "Tiso 52 °C, unreliable (above the highest ligand concentration, 500 µM)"}}, "data": [{"compound": "Nc1ncnc2c1ncn2[C@@H]1O[C@H](COP(=O)(O)O)[C@@H](O)[C@H]1O", "note": "[AMP]", "values": [{"measurement": "Kd,app (μM)‡", "setting": "TrkA; Tiso 54 °C, unreliable (above the highest ligand concentration, 500 µM)", "result": "2,050.000 ± 494.975 µM"}]}, {"compound": "Nc1ncnc2c1ncn2[C@@H]1O[C@H](COP(=O)(O)OP(=O)(O)OP(=O)(O)O)[C@@H](O)[C@H]1O", "note": "[ATP]", "values": [{"measurement": "Kd,app (μM)‡", "setting": "TrkA; [2]", "result": "2,610.000 ± 2390.021 µM"}]}, {"compound": "Nc1nc2c(ncn2[C@@H]2O[C@@H]3COP(=O)(O)O[C@H]4[C@@H](O)[C@H](n5cnc6c(=O)[nH]c(N)nc65)O[C@@H]4COP(=O)(O)O[C@H]3[C@H]2O)c(=O)[nH]1", "note": "[c-di-GMP]", "values": [{"measurement": "Kd,app (μM)‡", "setting": "TrkA; Tiso 54 °C, unreliable (far above the highest ligand concentration, 500 µM)", "result": "100,000.000 ± 0.000 µM"}]}, {"compound": "Nc1ncnc2c1ncn2[C@@H]1O[C@H](COP(=O)(O)O[C@H]2[C@@H](O)[C@H](n3cnc4c(N)ncnc43)O[C@@H]2COP(=O)(O)O)[C@@H](O)[C@H]1O", "note": "[pApA]", "values": [{"measurement": "Kd,app (μM)‡", "setting": "TrkA; [2]", "result": "1,650.000 ± 494.975 µM"}]}, {"compound": "TrkA of Streptococcus mitis CCUG31611 (SM12261_0089), recombinant with N-terminal 6x His-tag (natural protein)", "values": [{"measurement": "stoichiometry N", "setting": "[1]", "result": 8}]}]}
